A compilation of properties of binary mixtures (doi:10.1016/j.molliq.2005.06.001)

Assay: xn = mol fraction of the nth substance listed
Settings: 298 K, 101 kPa

Cn1ccnc1 + CC[n+]1ccn(C)c1.F[B-](F)(F)F
Settings | electrical conductivity [S/m]
x1 = 0.1 | 1.67
x1 = 0.19 | 1.72
x1 = 0.31 | 1.83
x1 = 0.41 | 1.91
x1 = 0.51 | 2.01
x1 = 0.61 | 2.11
x1 = 0.7 | 2.15
x1 = 0.8 | 2.12
x1 = 0.85 | 1.85
x1 = 0.9 | 1.7
x1 = 0.95 | 1.18
x2 = 0.003 | 0.14

CC[n+]1ccn(C)c1.F[B-](F)(F)F + CC1COC(=O)O1
Settings | electrical conductivity [S/m]
x1 = 0.001 | 0.05
x2 = 0 | 1.39
x2 = 0.37 | 1.73
x2 = 0.55 | 1.85
x2 = 0.65 | 1.87
x2 = 0.75 | 1.8
x2 = 0.95 | 0.99

CCCn1cc[n+](C)c1.[Br-] + O
Settings | electrical conductivity [S/m]
x1 = 0.0002 | 0.16
x2 = 0 | 0.03
x2 = 0.22 | 0.155
x2 = 0.36 | 0.46
x2 = 0.51 | 1.22
x2 = 0.79 | 6.23
x2 = 0.96 | 8.92

CNC=O + CC[n+]1ccn(C)c1.F[B-](F)(F)F
Settings | electrical conductivity [S/m]
x1 = 0.05 | 1.59
x1 = 0.11 | 1.79
x1 = 0.31 | 2.26
x1 = 0.57 | 2.97
x1 = 0.72 | 3.15
x1 = 0.78 | 3.26
x1 = 0.86 | 3.05
x1 = 0.91 | 2.62
x2 = 0.001 | 0.34

CC[n+]1ccn(C)c1.F[B-](F)(F)F + O
Settings | electrical conductivity [S/m]
x1 = 0.0001 | 0.08
x1 = 0.01 | 4.13
x2 = 0 | 1.39
x2 = 0.16 | 2.04
x2 = 0.34 | 2.92
x2 = 0.47 | 4.11
x2 = 0.66 | 6.17
x2 = 0.9 | 9.28
x2 = 0.92 | 8.78
x2 = 0.95 | 8.32
x2 = 0.97 | 6.32

CCCn1cc[n+](C)c1.[Br-] + CC1COC(=O)O1
Settings | electrical conductivity [S/m]
x1 = 0.004 | 0.09
x2 = 0 | 0.03
x2 = 0.19 | 0.07
x2 = 0.27 | 0.09
x2 = 0.38 | 0.15
x2 = 0.46 | 0.26
x2 = 0.49 | 0.26
x2 = 0.55 | 0.42
x2 = 0.61 | 0.47
x2 = 0.76 | 0.59
x2 = 0.82 | 0.69
x2 = 0.89 | 0.73
x2 = 0.93 | 0.63
x2 = 0.96 | 0.49
